Measurements: patent US20040039023A1, “Therapeutic agents” (priority 2000, published 2004)

How the values were obtained:
5-HT1A receptors = target: T1, 5-HT1A receptors (Rattus norvegicus, UniProt P19327); assay: Inhibition of [3H]8-OH-DPAT binding to 5-HT1A receptors, rat hippocampal tissue; settings: ligand [3H]8-OH-DPAT 2 nM
T1 construct: Hippocampal tissue from the brains of male Charles River CD rats; from tissue; host or cells: rat hippocampus membrane homogenate
T1 sequence (P19327 1-422): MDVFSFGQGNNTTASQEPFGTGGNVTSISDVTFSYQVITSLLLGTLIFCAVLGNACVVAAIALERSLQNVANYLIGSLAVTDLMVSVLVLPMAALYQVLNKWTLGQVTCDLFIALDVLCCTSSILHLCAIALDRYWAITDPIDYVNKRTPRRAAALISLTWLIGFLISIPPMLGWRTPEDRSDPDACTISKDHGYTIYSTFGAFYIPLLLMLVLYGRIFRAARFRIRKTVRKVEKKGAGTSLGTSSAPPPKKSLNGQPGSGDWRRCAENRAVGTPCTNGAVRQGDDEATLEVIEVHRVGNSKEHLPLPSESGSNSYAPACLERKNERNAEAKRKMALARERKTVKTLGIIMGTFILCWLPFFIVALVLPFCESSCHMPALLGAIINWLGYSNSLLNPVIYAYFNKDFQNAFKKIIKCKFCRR
Method: Hippocampal tissue from the brains of male Charles River CD rats weighing between 150-250 g were homogenised in ice-cold 50 mM Tris-HCl buffer (pH 7.7) when measured at 25° C., 1:40 w/v) and centrifuged at 30,000 g at 4° C. for 10 minutes. The pellet was rehomogenised in the same buffer, incubated at 37° C. for 10 minutes and centrifuged at 30,000 g at 4° C. for 10 minutes. The final pellet was resuspended in 50 mM Tris-HCl buffer (pH 7.7) containing 4 mM CaCl2, 0.1% L-ascorbic acid and 10 μM pargyline hydrochloride (equivalent to 6.25 mg wet weight of tissue/ml) and used immediately in the binding assay. Aliquots (400 μl; equivalent to 2.5 mg wet weight of tissue/tube) of this suspension were added to tubes containing the ligand (50 μl; 2 nM) and distilled water (50 μl; total binding) or 5-HT (50 μl; 10 μM; non-specific binding) or test compound (50 μl; at a single concentration of 10^−6 M or at 10 concentrations ranging from 10^−11-10^−3 M). The ligand was [^3H]8-hydroxy-2-(dipropylamino)tetralin ([^3H]8-OH-DPAT) and the mixture was incubated at 25° C. for 30 minutes before the incubation was terminated by rapid filtration.
(§1) The filters were washed with ice-cold Tris-HCl buffer and dried. The filters were punched out into vials, scintillation fluid added and radioactivity determined by liquid scintillation counting. The percentage displacement of specific binding of the tritiated ligand was calculated for the single concentration (10^−6 M) of test compound. Displacement curves were then produced for those compounds which displaced ≧50% of specific binding of the tritiated ligand at 10^−6 M using a range of concentrations of the compound. The concentration which gave 50% inhibition of specific binding (IC50) was obtained from the curve. The inhibition coefficient Ki was then calculated using the formula [formula]
(§2) in which [ligand] is the concentration of the tritiated ligand used and KD is the equilibrium dissociation constant for the ligand.

[1] = tested on: apomorphine-induced climbing in mice; assay: Antagonism of apomorphine-induced climbing in mice; format: in vivo; settings: male mice; for ED50: Mus musculus, po 30 minutes before apomorphine 0.88 mg/kg sc, free base equivalents, read-out: ED50 (dose causing 50% of the control score); for duration: po, antagonism of apomorphine-induced climbing
Method: Antagonism of Apomorphine-Induced Climbing in Mice Groups of 10 male mice weighing […] (max. range 10 g) were treated with test compound or control vehicle by po administration. 30 minutes later, mice were injected subcutaneously with apomorphine (0.88 mg/kg). Immediately after the apomorphine injection the mice were placed in the test cages and the climbing behaviour of each mouse was assessed at 10 and 20 minutes on a simple 0-2 ranking scale. The ED50 values (dose causing 50% of the control score) for the test compounds and 95% confidence limits were calculated.

α1-adrenoceptors = assay: Inhibition of [7-methoxy-3H]prazosin binding to α1-adrenoceptors, rat whole cortical tissue; settings: ligand [7-methoxy-3H]prazosin 0.1 nM
Method: Whole cortical tissue from the brains of male Charles River CD rats weighing between 150-250 g were homogenised in ice-cold 50 mM Tris-HCl, pH 7.6 (at 25° C.; 1:40 w/v) and centrifuged at 1000 g at 4° C. for 10 minutes. The supernatant was centrifuged at 30,000 g at 4° C. for 10 minutes. The pellet was rehomogenised in 50 mM Tris-HCl, pH 7.6 (1:40 w/v) and centrifuged at 30,000 g at 4° C. for 10 minutes. The final pellet was resuspended in 50 mM Tris-HCl, pH 7.6 (equivalent to 12.5 mg wet weight of tissue/ml) and used immediately in the binding assay. Aliquots (400 μl; equivalent to 5 mg wet weight of tissue/tube) of this suspension were added to tubes containing the ligand (50 μl; 0.1 nM) and distilled water (50 μl; total binding) or phentolamine (50 μl; 5 μM; non-specific binding) or test compound (50 μl; at a single concentration of 10^−6M or at 10 concentrations ranging from 10^−11-10^−3M). The ligand was [7-methoxy-^3H]prazosin and the mixture was incubated at 30° C. for 30 minutes before the incubation was terminated by rapid filtration.
as §1, §2

D2 dopamine receptors = target: T2, D2 dopamine receptors (Rattus norvegicus, UniProt P61169); assay: Inhibition of tritiated (S)-sulpiride binding to D2 dopamine receptors, rat striatal tissue; settings: ligand tritiated (S)-sulpiride 1 nM
T2 construct: Striatal tissue from the brains of male Charles River CD rats; from tissue; host or cells: rat striatum membrane homogenate
T2 sequence (P61169 whole entry): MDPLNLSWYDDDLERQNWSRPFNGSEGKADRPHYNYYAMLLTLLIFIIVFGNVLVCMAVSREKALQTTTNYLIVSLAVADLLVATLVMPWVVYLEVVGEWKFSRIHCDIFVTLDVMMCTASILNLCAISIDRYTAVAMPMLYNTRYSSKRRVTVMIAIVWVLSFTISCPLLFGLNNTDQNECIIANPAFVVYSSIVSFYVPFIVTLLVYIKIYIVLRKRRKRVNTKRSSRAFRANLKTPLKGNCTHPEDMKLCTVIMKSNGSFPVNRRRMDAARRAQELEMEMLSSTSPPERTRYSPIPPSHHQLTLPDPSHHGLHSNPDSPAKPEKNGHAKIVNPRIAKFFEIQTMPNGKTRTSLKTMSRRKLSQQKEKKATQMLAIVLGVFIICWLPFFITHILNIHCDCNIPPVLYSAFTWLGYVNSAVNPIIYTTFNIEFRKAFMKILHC
Method: Striatal tissue from the brains of male Charles River CD rats weighing between 140-250 g were homogenised in ice-cold 50 mM Tris-HCl buffer (pH 7.7 when measured at 25° C.) and centrifuged at 40,000 g for 10 minutes. The pellet was resuspended in Tris salts buffer (50 mM Tris-HCl buffer containing 120 mM NaCl, 5 mM KCl, 2 mM CaCl2 and 1 mM MgCl2 with the addition of 6 mM ascorbic acid; pH 7.7 when measured at 25° C.), and again centrifuged at 40,000 g for 10 minutes. The final pellet was stored at −80° C. Before each test the pellet was resuspended in Tris salts buffer (equivalent to 2 mg wet weight of tissue/ml). […]
The filters were washed with ice-cold Tris-HCl buffer and dried. The filters were punched out in to vials, scintillation fluid added and were left for about 20 hours before being counted by scintillation spectrophotometry. The percentage displacement of specific binding of the tritiated ligand was calculated for the single concentration (10^−6 M) of test compound. […] The inhibition coefficient Ki was then calculated using the formula [formula] […]

COc1ccccc1N1CCC(CNC[C@H]2COc3ccc(Cl)cc3O2)CC1 [Comparative Example A, (S)-(−)-N-(7-Chloro-1,4-benzodioxan-2-ylmethyl)-1-(1-(2-methoxyphenyl)piperid-4-yl)methylamine, reference compound]
Ki (5-HT1A receptors): 22 nM
ED50 [1]: 5 mg/kg
duration [1]: [>6 h]
Ki (α1-adrenoceptors): 53 nM

Oc1ccccc1N1CCC(CNC[C@H]2COc3ccc(Cl)cc3O2)CC1 [Example 1, (S)-(−)-2-{4-[N-(7-chloro-2,3-dihydro-1,4-benzodioxin-2-ylmethyl)aminomethyl]piperidino}phenol]
melting point: 84 to 86 °C
Ki (D2 dopamine receptors): 11 nM
Ki (5-HT1A receptors): 12 nM
ED50 [1]: 3 mg/kg
duration [1]: [>6 h]
Ki (α1-adrenoceptors): 101 nM

Oc1ccccc1N1CCC(CNC[C@H]2COc3ccc(C(F)(F)F)cc3O2)CC1 [Example 2, (S)-(−)-2-{4-[N-(7-trifluoromethyl-2,3-dihydro-1,4-benzodioxin-2-ylmethyl)aminomethyl]piperidino}phenol]
Ki (D2 dopamine receptors): 25 nM
Ki (5-HT1A receptors): 37 nM
ED50 [1]: 0.6 mg/kg
duration [1]: [>4 h]
Ki (α1-adrenoceptors): 573 nM
